A word on the inhibition: it is the change of the read-out against control, counted positive when it falls. The term IC50 denotes the concentration at which inhibition is half-maximal. High values mean weaker potency in that assay, low ones greater potency in that assay.

Chain of Human TASK-1 channels (O14649 whole entry): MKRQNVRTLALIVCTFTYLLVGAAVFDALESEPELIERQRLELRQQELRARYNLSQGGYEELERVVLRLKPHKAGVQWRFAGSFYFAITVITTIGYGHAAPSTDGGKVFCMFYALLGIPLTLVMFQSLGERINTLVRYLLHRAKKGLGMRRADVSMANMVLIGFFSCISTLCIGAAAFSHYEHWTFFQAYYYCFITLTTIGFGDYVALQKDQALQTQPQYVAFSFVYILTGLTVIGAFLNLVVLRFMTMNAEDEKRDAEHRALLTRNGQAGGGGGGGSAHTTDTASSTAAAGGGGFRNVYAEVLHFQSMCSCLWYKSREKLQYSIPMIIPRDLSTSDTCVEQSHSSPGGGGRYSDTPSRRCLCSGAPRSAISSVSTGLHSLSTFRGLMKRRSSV

The first experiment addresses Human TASK-1 channels (Homo sapiens (Human), UniProt O14649). As to the kind of experiment: Activity on the TASK-1 channel in Xenopus oocytes (two-microelectrode voltage clamp). It is filed as cell-based. To be noted: 5 μM; percentage inhibition of TASK-1 control current, Xenopus oocytes. How it is done: Determination of the activity on the TASK-1 channel in Xenopus oocytes:
Human TASK-1 channels were expressed in Xenopus oocytes. For this purpose, oocytes were isolated from Xenopus laevis and defolliculated. Subsequently, TASK-1-encoding RNA synthesized in vitro was injected into oocytes. After two days of TASK-1 protein expression, TASK-1 currents were measured by two-microelectrode voltage clamp. Data were acquired and analyzed using a TEC-10cx amplifier (NPI Electronic, Tamm, Germany) connected to an ITC-16 interface (Instrutech Corp., Long Island, USA) and Pulse software (HEKA Elektronik, Lambrecht, Germany). Oocytes were clamped to −90 mV and TASK-1 mediated currents were measured during 500 ms voltage pulses to 40 mV. Oocytes were continuously superfused with ND96 buffer containing: NaCl 96 mM, KCl2 mM, CaCl2 1.8 mM, MgCl2 1 mM, HEPES 5 mM (pH adjusted to 7.4 with NaOH). All experiments were performed at room temperature.
Test substances were consecutively added to the bath solution at rising concentrations. Compound effects were calculated as the percentage inhibition of
TASK-1 control current before compound application. IC50 values were obtained by fitting the data to the general dose-response equation.
The compound `CC(C)(C)C(=O)N1CCc2c(c(-c3cccc(C#N)c3)nn2[C@@H]2c3cc(F)cc(F)c3C[C@H]2O)C1` [Example 14d, 3-[1-((1R,2R)-4,6-Difluoro-2-hydroxy-indan-1-yl)-5-(2,2-dimethyl-propionyl)-4,5,6,7-tetrahydro-1H-pyrazolo[4,3-c]pyridin-3-yl]-benzonitrile] came in with an inhibition at 5 µM of 94%.

Consider `COCC(=O)N1CCc2c(c(-c3cccc(C#N)c3)nn2[C@@H]2c3cc(F)cc(F)c3C[C@H]2O)C1` [Example 14e, 3-[1-((1R,2R)-4,6-Difluoro-2-hydroxy-indan-1-yl)-5-(2-methoxy-acetyl)-4,5,6,7-tetrahydro-1H-pyrazolo[4,3-c]pyridin-3-yl]-benzonitrile], for which the inhibition at 5 µM was found to be 72%. On the same count and under the same terms, the figure for `CCC(=O)O[C@@H]1Cc2c(F)cc(F)cc2[C@H]1n1nc(-c2cccc(C#N)c2)c2c1CCN(C(=O)CC)C2` [Example 15a, Propionic acid (1R,2R)-1-[3-(3-cyano-phenyl)-5-propionyl-4,5,6,7-tetrahydro-pyrazolo[4,3-c]pyridin-1-yl]-4,6-difluoro-indan-2-yl ester] is 51%; for `NC(=O)c1cccc(-c2nn([C@@H]3c4cc(F)cc(F)c4C[C@H]3O)c3c2CN(C(=O)C2CC2)CC3)c1` [Example 15b, 3-[5-Cyclopropanecarbonyl-1-((1R,2R)-4,6-difluoro-2-hydroxy-indan-1-yl)-4,5,6,7-tetrahydro-1H-pyrazolo[4,3-c]pyridin-3-yl]-benzamide] it is 24%.

On to `N#Cc1cccc(-c2nn([C@@H]3c4cc(F)cc(F)c4C[C@H]3O)c3c2CN(CCC(F)(F)F)CC3)c1` [Example 18c, 3-[1-((1R,2R)-4,6-Difluoro-2-hydroxy-indan-1-yl)-5-(3,3,3-trifluoro-propyl)-4,5,6,7-tetrahydro-1H-pyrazolo[4,3-c]pyridin-3-yl]-benzonitrile], for which the inhibition at 5 µM is 91%. Still for that read-out and setting: under `COCCN1CCc2c(c(-c3cccc(C#N)c3)nn2[C@@H]2c3cc(F)cc(F)c3C[C@H]2O)C1` [Example 18d, 3-[1-((1R,2R)-4,6-Difluoro-2-hydroxy-indan-1-yl)-5-(2-methoxy-ethyl)-4,5,6,7-tetrahydro-1H-pyrazolo[4,3-c]pyridin-3-yl]-benzonitrile] stands 83%; under `N#Cc1cccc(-c2nn([C@@H]3c4cc(F)cc(F)c4C[C@H]3O)c3c2CN(CC2CC2)CC3)c1` [Example 18e, 3-[5-Cyclopropylmethyl-1-((1R,2R)-4,6-difluoro-2-hydroxy-indan-1-yl)-4,5,6,7-tetrahydro-1H-pyrazolo[4,3-c]pyridin-3-yl]-benzonitrile], 81%. Take `CCCN1CCc2c(c(-c3ccc(F)cc3)nn2[C@@H]2c3cc(F)cc(F)c3C[C@H]2O)C1` [Example 18f, (1R,2R)-4,6-Difluoro-1-[3-(4-fluoro-phenyl)-5-propyl-4,5,6,7-tetrahydro-pyrazolo[4,3-c]pyridin-1-yl]-indan-2-ol]: the inhibition at 5 µM was determined as 67%.

Regarding `COCCN1CCc2c(c(-c3ccc(F)cc3)nn2[C@@H]2c3cc(F)cc(F)c3C[C@H]2O)C1` [Example 18g], 5 µM produced 56% inhibition. The compound `NC(=O)c1cccc(-c2nn([C@@H]3c4cc(F)cc(F)c4C[C@H]3O)c3c2CN(CCC(F)(F)F)CC3)c1` [Example 18h, 3-[1-((1R,2R)-4,6-Difluoro-2-hydroxy-indan-1-yl)-5-(3,3,3-trifluoro-propyl)-4,5,6,7-tetrahydro-1H-pyrazolo[4,3-c]pyridin-3-yl]-benzamide] registered an inhibition at 5 µM of 39%. Compound `CCc1cc(F)cc2c1C[C@@H](O)[C@@H]2n1nc(-c2cccc(C#N)c2)c2c1CCN(C(C)=O)C2` [Example 19b, 3-[5-Acetyl-1-((1R,2R)-4-ethyl-6-fluoro-2-hydroxy-indan-1-yl)-4,5,6,7-tetrahydro-1H-pyrazolo[4,3-c]pyridin-3-yl]-benzonitrile] registered an inhibition at 5 µM of 82%.

Still in this experiment, the particulars now being: human TASK-1 expressed in Xenopus oocytes, currents during 500 ms pulses to 40 mV, room temperature.
Compound `CC(=O)N1CCc2c(c(-c3cccc(C#N)c3)nn2[C@@H]2c3cc(F)cc(F)c3C[C@H]2O)C1` [Example 11t, 3-[5-Acetyl-1-((1R,2R)-4,6-difluoro-2-hydroxy-indan-1-yl)-4,5,6,7-tetrahydro-1H-pyrazolo[4,3-c]pyridin-3-yl]-benzonitrile] had an IC50 of 881 nM. With `CC(=O)N1CCc2c(c(-c3cccc(Cl)c3)nn2[C@@H]2c3cc(F)cc(F)c3C[C@H]2O)C1` [Example 11v, 1-[3-(3-Chloro-phenyl)-1-((1R,2R)-4,6-difluoro-2-hydroxy-indan-1-yl)-1,4,6,7-tetrahydro-pyrazolo[4,3-c]pyridin-5-yl]-ethanone], the IC50 came to 1180 nM. Regarding `CC(=O)N1CCc2c(c(-c3ccc(C)cc3)nn2[C@@H]2c3cc(F)cc(F)c3C[C@H]2O)C1` [Example 11x, 1-[1-((1R,2R)-4,6-Difluoro-2-hydroxy-indan-1-yl)-3-p-tolyl-1,4,6,7-tetrahydro-pyrazolo[4,3-c]pyridin-5-yl]-ethanone], 1520 nM corresponded to half-maximal inhibition (IC50). `COc1cc(-c2nn([C@@H]3c4cc(F)cc(F)c4C[C@H]3O)c3c2CN(C(C)=O)CC3)ccc1F` [Example 11y, 1-[1-((1R,2R)-4,6-Difluoro-2-hydroxy-indan-1-yl)-3-(4-fluoro-3-methoxy-phenyl)-1,4,6,7-tetrahydro-pyrazolo[4,3-c]pyridin-5-yl]-ethanone] showed an IC50 of 1920 nM. `CC(=O)N1CCc2c(c(-c3ccc(F)c(C#N)c3)nn2[C@@H]2c3cc(F)cc(F)c3C[C@H]2O)C1` [Example 11z, 5-[5-Acetyl-1-((1R,2R)-4,6-difluoro-2-hydroxy-indan-1-yl)-4,5,6,7-tetrahydro-1H-pyrazolo[4,3-c]pyridin-3-yl]-2-fluoro-benzonitrile] came in with an IC50 of 2130 nM. `CC(=O)N1CCc2c(c(-c3ccc(F)cc3)nn2[C@@H]2CCc3ccccc32)C1` [Example 12a, 1-[(R)-3-(4-Fluoro-phenyl)-1-indan-1-yl-1,4,6,7-tetrahydro-pyrazolo[4,3-c]pyridin-5-yl]-ethanone] showed an IC50 of 712 nM. Turning to `CC(=O)N1CCc2c(c(-c3ccc(F)cc3)nn2[C@H]2CCc3ccccc32)C1` [Example 12b, 1-[(S)-3-(4-Fluoro-phenyl)-1-indan-1-yl-1,4,6,7-tetrahydro-pyrazolo[4,3-c]pyridin-5-yl]-ethanone], 479 nM corresponded to half-maximal inhibition (IC50). In turn, `CCC(=O)N1CCc2c(c(-c3cccc(C#N)c3)nn2[C@@H]2c3cc(F)cc(F)c3C[C@H]2O)C1` [Example 14a, 3-[1-((1R,2R)-4,6-Difluoro-2-hydroxy-indan-1-yl)-5-propionyl-4,5,6,7-tetrahydro-1H-pyrazolo[4,3-c]pyridin-3-yl]-benzonitrile] came in with a 50% inhibitory concentration (IC50) of 70 nM.

Turning to `N#Cc1cccc(-c2nn([C@@H]3c4cc(F)cc(F)c4C[C@H]3O)c3c2CN(C(=O)C2CC2)CC3)c1` [Example 14b, 3-[5-Cyclopropanecarbonyl-1-((1R,2R)-4,6-difluoro-2-hydroxy-indan-1-yl)-4,5,6,7-tetrahydro-1H-pyrazolo[4,3-c]pyridin-3-yl]-benzonitrile], half-maximal inhibition (IC50) required 83.1 nM.

For `CC(C)C(=O)N1CCc2c(c(-c3cccc(C#N)c3)nn2[C@@H]2c3cc(F)cc(F)c3C[C@H]2O)C1` [Example 14c, 3-[1-((1R,2R)-4,6-Dif1uoro-2-hydroxy-indan-1-yl)-5-isobutyryl-4,5,6,7-tetrahydro-1H-pyrazolo[4,3-c]pyridin-3-yl]-benzonitrile], the midpoint of inhibition, the IC50, lay at 250 nM. Consider `CO[C@@H]1Cc2c(F)cc(F)cc2[C@H]1n1nc(-c2cccc(C#N)c2)c2c1CCN(C(C)=O)C2` [Example 16a, 3-[5-Acetyl-1-((1R,2R)-4,6-difluoro-2-methoxy-indan-1-yl)-4,5,6,7-tetrahydro-1H-pyrazolo[4,3-c]pyridin-3-yl]-benzonitrile], for which the IC50 was determined as 446 nM. For `CO[C@@H]1Cc2c(F)cc(F)cc2[C@H]1n1nc(-c2ccc(F)cc2)c2c1CCN(C(C)=O)C2` [Example 16b, 1-[1-((1R,2R)-4,6-Difluoro-2-methoxy-indan-1-yl)-3-(4-fluoro-phenyl)-1,4,6,7-tetrahydro-pyrazolo[4,3-c]pyridin-5-yl]-ethanone], half-maximal inhibition (IC50) was put at 1160 nM. The same measure, in the same setting: under `COC(=O)N1CCc2c(c(-c3cccc(C#N)c3)nn2[C@@H]2c3cc(F)cc(F)c3C[C@H]2O)C1` [Example 17a, 3-(3-Cyano-phenyl)-1-((1R,2R)-4,6-difluoro-2-hydroxy-indan-1-yl)-1,4,6,7-tetrahydro-pyrazolo[4,3-c]pyridine-5-carboxylic acid methyl ester] stands 260 nM.

`O[C@@H]1Cc2c(F)cc(F)cc2[C@H]1n1nc(-c2ccc(F)cc2)c2c1CCN(CC1CC1)C2` [Example 18a, (1R,2R)-1-[5-cyclopropylmethyl-3-(4-fluoro-phenyl)-4,5,6,7-tetrahydro-pyrazolo[4,3-c]pyridin-1-yl]-4,6-difluoro-indan-2-ol] displayed a 50% inhibitory concentration (IC50) of 500 nM.

The compound `CC(C)N1CCc2c(c(-c3ccc(F)cc3)nn2[C@@H]2c3cc(F)cc(F)c3C[C@H]2O)C1` [Example 18b, (1R,2R)-4,6-Difluoro-1-[3-(4-fluoro-phenyl)-5-isopropyl-4,5,6,7-tetrahydro-pyrazolo[4,3-c]pyridin-1-yl]-indan-2-ol] registered an IC50 of 8190 nM. Regarding `CC(=O)N1CCc2c(c(-c3cccc(C#N)c3)nn2[C@@H]2c3cc(F)cc(C)c3C[C@H]2O)C1` [Example 19a, 3-[5-Acetyl-1-((1R,2R)-6-fluoro-2-hydroxy-4-methyl-indan-1-yl)-4,5,6,7-tetrahydro-1H-pyrazolo[4,3-c]pyridin-3-yl]-benzonitrile], it took 231 nM to reach half-maximal inhibition (IC50).
